Data reported in ChEMBL document CHEMBL1201862, “PubChem BioAssay data set” (2004).
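Five concentrations, 48 hours, 96-well plates. GI50 is the concentration that inhibits growth by half.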 Active and inactive are the calls of the source. No stated cut-off is given here; in the data, active = GI50 up to about 1.1 µM and inactive = higher.

Tests used:
Assay in all cases: DTP human tumour cell line panel, 48 h
786-0 = test system: 786-0
A498 = test system: A498
A549 = test system: A549
ACHN = test system: ACHN
CAKI-1 = test system: CAKI-1
CCRF-CEM = test system: CCRF-CEM
COLO 205 = test system: COLO 205
DLD-1 = test system: DLD-1
DMS-114 = test system: DMS-114
DMS-273 = test system: DMS-273
HCC 2998 = test system: HCC 2998
HCT-116 = test system: HCT-116
HCT-15 = test system: HCT-15
HL-60 = test system: HL-60
HOP-18 = test system: HOP-18
HOP-62 = test system: HOP-62
HT-29 = test system: HT-29
IGROV-1 = test system: IGROV-1
K562 = test system: K562
KM-20L2 = test system: KM-20L2
KM12 = test system: KM12
LOX IMVI = test system: LOX IMVI
LXFL 529 = test system: LXFL 529
M14 = test system: M14
M19-MEL = test system: M19-MEL
MOLT-4 = test system: MOLT-4
Malme-3M = test system: Malme-3M
NCI-H226 = test system: NCI-H226
NCI-H23 = test system: NCI-H23
NCI-H460 = test system: NCI-H460
NCI-H522 = test system: NCI-H522
OVCAR-3 = test system: OVCAR-3
OVCAR-4 = test system: OVCAR-4
OVCAR-5 = test system: OVCAR-5
OVCAR-8 = test system: OVCAR-8
RPMI-8226 = test system: RPMI-8226
RXF 393 = test system: RXF 393
SF-268 = test system: SF-268
SF-295 = test system: SF-295
SF-539 = test system: SF-539
SK-MEL-28 = test system: SK-MEL-28
SK-MEL-2 = test system: SK-MEL-2
SK-MEL-5 = test system: SK-MEL-5
SK-OV-3 = test system: SK-OV-3
SN12C = test system: SN12C
SNB-19 = test system: SNB-19
SNB-75 = test system: SNB-75
SNB-78 = test system: SNB-78
SW-620 = test system: SW-620
TK-10 = test system: TK-10
U-251 = test system: U-251
UACC-257 = test system: UACC-257
UACC-62 = test system: UACC-62
UO-31 = test system: UO-31
EKVX = test system: EKVX
HOP-92 = test system: HOP-92
SR = test system: SR

SMILES: O=C(CSc1nnc(Cc2ccccc2)o1)Nc1ccc(Cl)cc1Cl
- GI50 (786-0): > 100 µM (inactive)
- GI50 (A498): > 100 µM (inactive)
- GI50 (A549): > 100 µM (inactive)
- GI50 (ACHN): > 100 µM (inactive)
- GI50 (CAKI-1): > 100 µM (inactive)
- GI50 (CCRF-CEM): > 100 µM (inactive)
- GI50 (COLO 205): > 100 µM (inactive)
- GI50 (DLD-1): > 100 µM (inactive)
- GI50 (DMS-114): > 100 µM (inactive)
- GI50 (DMS-273): > 100 µM (inactive)
- GI50 (HCC 2998): > 100 µM (inactive)
- GI50 (HCT-116): > 100 µM (inactive)
- GI50 (HCT-15): > 100 µM
- GI50 (HL-60): > 100 µM (inactive)
- GI50 (HOP-18): > 100 µM (inactive)
- GI50 (HOP-62): > 100 µM (inactive)
- GI50 (HT-29): > 100 µM (inactive)
- GI50 (IGROV-1): > 100 µM (inactive)
- GI50 (K562): > 100 µM (inactive)
- GI50 (KM-20L2): > 100 µM (inactive)
- GI50 (KM12): > 100 µM (inactive)
- GI50 (LOX IMVI): > 100 µM (inactive)
- GI50 (LXFL 529): > 100 µM (inactive)
- GI50 (M14): > 100 µM (inactive)
- GI50 (M19-MEL): > 100 µM (inactive)
- GI50 (MOLT-4): > 100 µM (inactive)
- GI50 (Malme-3M): > 100 µM (inactive)
- GI50 (NCI-H226): > 100 µM (inactive)
- GI50 (NCI-H23): > 100 µM (inactive)
- GI50 (NCI-H460): > 100 µM (inactive)
- GI50 (NCI-H522): > 100 µM (inactive)
- GI50 (OVCAR-3): > 100 µM (inactive)
- GI50 (OVCAR-4): > 100 µM (inactive)
- GI50 (OVCAR-5): > 100 µM (inactive)
- GI50 (OVCAR-8): > 100 µM (inactive)
- GI50 (RPMI-8226): > 100 µM (inactive)
- GI50 (RXF 393): > 100 µM (inactive)
- GI50 (SF-268): > 100 µM (inactive)
- GI50 (SF-295): > 100 µM (inactive)
- GI50 (SF-539): > 100 µM (inactive)
- GI50 (SK-MEL-28): > 100 µM (inactive)
- GI50 (SK-MEL-2): > 100 µM (inactive)
- GI50 (SK-MEL-5): > 100 µM (inactive)
- GI50 (SK-OV-3): > 100 µM (inactive)
- GI50 (SN12C): > 100 µM (inactive)
- GI50 (SNB-19): > 100 µM (inactive)
- GI50 (SNB-75): > 100 µM (inactive)
- GI50 (SNB-78): > 100 µM (inactive)
- GI50 (SW-620): > 100 µM (inactive)
- GI50 (TK-10): > 100 µM (inactive)
- GI50 (U-251): > 100 µM (inactive)
- GI50 (UACC-257): > 100 µM (inactive)
- GI50 (UACC-62): > 100 µM (inactive)
- GI50 (UO-31): > 100 µM (inactive)

SMILES: CC1(C)C2CCC3(C2)CS(=O)(=O)N2OC231 (configuration not stated)
- GI50 (786-0): 16.9 µM (inactive)
- GI50 (A498): 25.2 µM (inactive)
- GI50 (A549): > 100 µM (inactive)
- GI50 (ACHN): 15.9 µM (inactive)
- GI50 (CAKI-1): 16 µM (inactive)
- GI50 (CCRF-CEM): 24.5 µM (inactive)
- GI50 (COLO 205): 17.9 µM (inactive)
- GI50 (DLD-1): 23.7 µM (inactive)
- GI50 (DMS-114): 12.2 µM (inactive)
- GI50 (DMS-273): 29.4 µM (inactive)
- GI50 (EKVX): 15.7 µM (inactive)
- GI50 (HCC 2998): 38.1 µM (inactive)
- GI50 (HCT-116): 31.3 µM (inactive)
- GI50 (HCT-15): 16.1 µM
- GI50 (HL-60): 15.4 µM (inactive)
- GI50 (HOP-18): 17.6 µM (inactive)
- GI50 (HOP-62): 79.8 µM (inactive)
- GI50 (HOP-92): 10.8 µM (inactive)
- GI50 (HT-29): 15.2 µM (inactive)
- GI50 (IGROV-1): 19.5 µM (inactive)
- GI50 (K562): 17.4 µM (inactive)
- GI50 (KM-20L2): 16.3 µM (inactive)
- GI50 (KM12): 19.6 µM (inactive)
- GI50 (LOX IMVI): 16.3 µM (inactive)
- GI50 (LXFL 529): 16.7 µM (inactive)
- GI50 (M14): 16.2 µM (inactive)
- GI50 (M19-MEL): 15.7 µM (inactive)
- GI50 (Malme-3M): 15.5 µM (inactive)
- GI50 (NCI-H23): 16.6 µM (inactive)
- GI50 (NCI-H460): 19.5 µM (inactive)
- GI50 (NCI-H522): 13.8 µM (inactive)
- GI50 (OVCAR-3): 19.1 µM (inactive)
- GI50 (OVCAR-5): 23.7 µM (inactive)
- GI50 (OVCAR-8): 24.8 µM (inactive)
- GI50 (RPMI-8226): 29.5 µM (inactive)
- GI50 (SF-268): 26.4 µM (inactive)
- GI50 (SF-295): > 100 µM (inactive)
- GI50 (SF-539): 18.5 µM (inactive)
- GI50 (SK-MEL-28): 25.4 µM (inactive)
- GI50 (SK-MEL-2): 21.1 µM (inactive)
- GI50 (SK-MEL-5): 21 µM (inactive)
- GI50 (SK-OV-3): 49.7 µM (inactive)
- GI50 (SN12C): 16.9 µM (inactive)
- GI50 (SNB-19): 34.4 µM (inactive)
- GI50 (SNB-75): 17 µM (inactive)
- GI50 (SNB-78): 25.5 µM (inactive)
- GI50 (SR): > 100 µM (inactive)
- GI50 (SW-620): 16.5 µM (inactive)
- GI50 (TK-10): 18 µM (inactive)
- GI50 (U-251): 34.4 µM (inactive)
- GI50 (UACC-257): 17.1 µM (inactive)
- GI50 (UACC-62): 17.5 µM (inactive)
- GI50 (UO-31): 16.1 µM (inactive)
